Values joined by “and” are separate entries in the source; they are usually repeats but may differ in a detail not shown here. Identical values can stand only once.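 48-hour exposure; five concentrations; linearly interpolated endpoints. GI50 = concentration required for 50% inhibition of growth. TGI denotes the concentration required for complete inhibition of growth.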

Some test systems named below: OVCAR-8 ovarian; UACC-62 melanoma; HOP-92 NSCLC; DU-145 prostate; A498 renal; MCF7 breast; HCT-116 colon; MALME-3M melanoma; KM12 colon; NCI-H23 lung; SNB-19 CNS.
Assay in all cases: inhibition of tumour cell growth, NCI panel, 48 h

In the case of `CC1(C)OC2OC(C(COS(=O)(=O)C(F)(F)F)N=[N+]=[N-])C(OC(=O)c3ccccc3)C2O1` (centres undefined), the TGI with OVCAR-8 ovarian, in the test on UACC-62 melanoma, in the test with HOP-92 NSCLC, with DU-145 prostate, in the test on A498 renal and with MCF7 breast was over 100 µM in each case. Moreover, the TGI with HCT-116 colon, with MALME-3M melanoma, with KM12 colon, in the test on NCI-H23 lung and with SNB-19 CNS was over 100 µM each time.
Consider `O=C(/C(=C\I)c1ccccc1)c1ccccc1`, for which the TGI with OVCAR-8 ovarian amounted to 14.6 µM; in the test with UACC-62 melanoma it was 12 µM; in the test on HOP-92 NSCLC, 28.2 µM; with DU-145 prostate it was 19.2 µM; in the test on A498 renal it was 30.3 µM; in the test on MCF7 breast it was 4.22 µM. Further, the TGI in the test on HCT-116 colon was found to be 26.2 µM; in the test on MALME-3M melanoma it was 21.2 µM; in the test with KM12 colon, 8.09 µM; in the test on NCI-H23 lung it was 25.9 µM; with SNB-19 CNS, 23.1 µM.
For `O=C1CSC(c2cccc(Cl)c2)N1c1ccc(-c2ccc(-n3c(-c4ccccc4)nc4ccccc4c3=O)cc2)cc1` (centres undefined), the TGI with OVCAR-8 ovarian is over 100 µM; in the test with UACC-62 melanoma it was over 100 µM; with HOP-92 NSCLC, 56.5 µM; in the test on DU-145 prostate it was over 100 µM; in the test with A498 renal, over 100 µM; with MCF7 breast, over 100 µM. Further, the TGI in the test with HCT-116 colon, with MALME-3M melanoma, in the test on KM12 colon, in the test with NCI-H23 lung and with SNB-19 CNS was over 100 µM each time.
Take `Br[C@@H]1[C@H]2c3nc4ccccc4nc3[C@@H]1C[C@H]2Br`: the TGI with OVCAR-8 ovarian, in the test with UACC-62 melanoma, with HOP-92 NSCLC, with DU-145 prostate, in the test with A498 renal and in the test on MCF7 breast was over 100 µM each time. In addition, the TGI with HCT-116 colon, in the test with MALME-3M melanoma, with KM12 colon, in the test on NCI-H23 lung and in the test on SNB-19 CNS was over 100 µM throughout.
Regarding `CCN1CCC(CNC(=O)c2ccc(N)cc2)N1CC` (centres undefined), the TGI in the test with OVCAR-8 ovarian, with UACC-62 melanoma, with HOP-92 NSCLC, in the test on DU-145 prostate, in the test on A498 renal and in the test with MCF7 breast was over 100 µM in each case. Besides, the TGI in the test with HCT-116 colon, in the test on MALME-3M melanoma, in the test with KM12 colon, with NCI-H23 lung and with SNB-19 CNS was over 100 µM in each case.
In the case of `C[C@]12CC(c3ccccc3O1)C(C(=O)Nc1nc(C34CC5CC(CC(C5)C3)C4)cs1)C(=O)N2` (some centres undefined), the TGI in the test with OVCAR-8 ovarian, in the test on UACC-62 melanoma, in the test with HOP-92 NSCLC, in the test on DU-145 prostate, in the test on A498 renal and in the test on MCF7 breast was over 100 µM throughout. Besides, the TGI in the test on HCT-116 colon, with MALME-3M melanoma, in the test with KM12 colon, in the test on NCI-H23 lung and in the test on SNB-19 CNS was over 100 µM throughout.
Consider `CC(=O)OCC1OC(n2c(S)c(C#N)c(-c3ccccc3)c(C#N)c2=O)C(OC(C)=O)C(OC(C)=O)C1OC(C)=O` (centres undefined), for which the GI50 was > 100 µM and 16.7 µM in the test on OVCAR-8 ovarian; 82.3 µM and 23.2 µM in the test with UACC-62 melanoma; > 69 µM and 30.3 µM in the test with A498 renal; > 100 µM and 33.7 µM with MCF7 breast; > 100 µM and 39.3 µM in the test with HCT-116 colon; > 100 µM and 32.2 µM in the test with MALME-3M melanoma. Further, the GI50 is > 100 µM and 21.8 µM with KM12 colon; > 100 µM and 45 µM in the test on NCI-H23 lung. For the same compound, the TGI with OVCAR-8 ovarian was > 100 µM and 36.2 µM; with UACC-62 melanoma, > 100 µM and 59.5 µM; with HOP-92 NSCLC, 59.9 µM and 99.2 µM; in the test on DU-145 prostate it was over 100 µM; in the test with A498 renal, > 100 µM and 74 µM; with MCF7 breast it was > 100 µM and 97.6 µM. In addition, the TGI was over 100 µM in the test on HCT-116 colon; > 100 µM and 98.9 µM in the test with MALME-3M melanoma; > 100 µM and 52 µM in the test on KM12 colon; over 100 µM in the test with NCI-H23 lung; over 100 µM in the test with SNB-19 CNS.
Turning to `CC(Oc1ccccc1)C(=O)NNC(=O)OC(C)(C)C` (centres undefined), the TGI in the test with OVCAR-8 ovarian, in the test with UACC-62 melanoma, in the test on HOP-92 NSCLC, with DU-145 prostate, in the test on A498 renal and in the test on MCF7 breast was over 100 µM throughout. Also, the TGI in the test on HCT-116 colon, in the test with MALME-3M melanoma, with KM12 colon, with NCI-H23 lung and in the test with SNB-19 CNS was over 100 µM each time.
In the case of `CCOC(=O)/C=C(\C(=O)OCC)n1cc(C)c(=O)n(Cc2cnnn2COCCOC(C)=O)c1=O`, the TGI in the test with OVCAR-8 ovarian amounted to 20.6 µM; with UACC-62 melanoma it was 31.1 µM; in the test on HOP-92 NSCLC, 4.27 µM; with DU-145 prostate it was 48 µM; in the test on A498 renal it was 35.9 µM; with MCF7 breast, 24.5 µM. Besides, the TGI was 22.2 µM in the test with HCT-116 colon; 3.42 µM with MALME-3M melanoma; 31.8 µM in the test on KM12 colon; 34.2 µM in the test on NCI-H23 lung; over 61.8 µM in the test on SNB-19 CNS.
`Cc1ccc2nc(-c3ccc(C(C)(C)C)cc3)oc(=O)c2c1`: the TGI in the test on OVCAR-8 ovarian was determined as 43.9 µM; with UACC-62 melanoma it was 49.3 µM; in the test on HOP-92 NSCLC it was 63.2 µM; with DU-145 prostate it was 68.4 µM; with A498 renal it was 62.8 µM; in the test with MCF7 breast, 63.1 µM. The TGI was 51.9 µM in the test with HCT-116 colon; 53.9 µM with MALME-3M melanoma; 20.3 µM in the test on KM12 colon; 68.1 µM in the test on NCI-H23 lung; 74.2 µM with SNB-19 CNS.
Regarding `CCOC(=O)c1c(SC(=O)c2ccc(OC)cc2)n(-c2ccccc2)c(=S)n(-c2ccccc2)c1=O`, the TGI with OVCAR-8 ovarian is 76.5 µM; in the test on UACC-62 melanoma, over 100 µM; with HOP-92 NSCLC, over 100 µM; in the test with DU-145 prostate it was over 100 µM; in the test with A498 renal, over 100 µM; with MCF7 breast it was over 100 µM. For the same compound, the TGI in the test on HCT-116 colon is 47.9 µM; in the test with MALME-3M melanoma it was over 100 µM; in the test on KM12 colon, over 100 µM; in the test with NCI-H23 lung it was over 100 µM; with SNB-19 CNS, over 100 µM.

The values are drawn from PubChem BioAssay (NCI).
